Holding throughout (assay type): biochemical
The target of assay [1] is Human cathepsin B (Homo sapiens, UniProt P07858). The assay can be described thus: Cathepsin B Assay. The conditions noted are these: apparent inhibition constant; substrate Z-FR-AMC, pH 6, 30 min incubation at room temperature; read-out: CATB (Ki). As for the experimental part: (§1) Solutions of test compounds in varying concentrations were prepared in 10 µL of dimethyl sulfoxide (DMSO) and then diluted into assay buffer (40 µL, comprising: N,N-bis(2-hydroxyethyl)-2-aminoethanesulfonic acid (BES), 50 mM (pH 6); polyoxyethylenesorbitan monolaurate, 0.05%; and dithiothreitol (DTT), 2.5 mM). Human cathepsin B (0.025 pMoles in 25 µL of assay buffer) was added to the dilutions. The assay solutions were mixed for 5-10 seconds on a shaker plate, covered and incubated for 30 min at room temperature. Z-FR-AMC (20 nMoles in 25 µL of assay buffer) was added to the assay solutions and hydrolysis was followed spectrophotometrically at (λ 460 nm) for 5 min. Apparent inhibition constants (Ki) were calculated from the enzyme progress curves using standard mathematical models.

Assay [2] concerns the target Human cathepsin L (Homo sapiens, UniProt P07711). The assay can be described thus: Cathepsin L Assay. The conditions noted are these: apparent inhibition constant; substrate Z-Phe-Arg-AMC, pH 5.5, 30 min incubation at room temperature; read-out: CATL (Ki). How it is done:
as §1, with “MES,” for “N,N-bis(2-hydroxyethyl)-2-aminoethanesulfonic acid (BES),”, “5.5); EDTA, 2.5 mM;” for “6); polyoxyethylenesorbitan monolaurate, 0.05%;”, “DTT,” for “dithiothreitol (DTT),”, “L (0.05” for “B (0.025”, “Z-Phe-Arg-AMC (1” for “Z-FR-AMC (20”

Assay [3] addresses Human cathepsin S (Homo sapiens, UniProt P25774). In words: Cathepsin S Assay. As to conditions: apparent inhibition constant; substrate Z-Val-Val-Arg-AMC, pH 6.5, 30 min incubation at room temperature; read-out: CATS (Ki). As for the experimental part:
(§2) Solutions of test compounds in varying concentrations were prepared in 10 µL of dimethyl sulfoxide (DMSO) and then diluted into assay buffer (40 µL, comprising: MES, 50 mM (pH 6.5); EDTA, 2.5 mM; and NaCl, 100 mM); β-mercaptoethanol, 2.5 mM; and BSA, 0.00%. Human cathepsin S (0.05 pMoles in 25 µL of assay buffer) was added to the dilutions. The assay solutions were mixed for 5-10 seconds on a shaker plate, covered and incubated for 30 min at room temperature. Z-Val-Val-Arg-AMC (4 nMoles in 25 µL of assay buffer containing 10% DMSO) was added to the assay solutions and hydrolysis was followed spectrophotometrically (at λ, 460 nm) for 5 min. Apparent inhibition constants (Ki) were calculated from the enzyme progress curves using standard mathematical models.

Assay [4] addresses CATV (Homo sapiens, UniProt O60911). In words: Cathepsin V inhibition (CATV Ki, no method described).
Assay [5] has as its target T1, Human cathepsin F (Homo sapiens, UniProt Q9UBX1).
T1 sequence (Q9UBX1 271-484): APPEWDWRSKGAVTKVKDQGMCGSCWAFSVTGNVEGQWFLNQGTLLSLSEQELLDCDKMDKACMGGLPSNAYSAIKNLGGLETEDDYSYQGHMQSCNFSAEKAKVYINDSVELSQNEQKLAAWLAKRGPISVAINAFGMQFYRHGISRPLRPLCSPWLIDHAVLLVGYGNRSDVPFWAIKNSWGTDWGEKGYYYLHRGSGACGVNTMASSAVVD
The assay can be described thus: Cathepsin F Assay. The conditions noted are these: apparent inhibition constant; substrate Z-Phe-Arg-AMC, pH 6.5, 30 min incubation at room temperature; read-out: CATF (Ki). As for the experimental part: as §2, with “DTT,” for “β-mercaptoethanol,”, “0.01 %.” for “0.00%.”, “F (0.1” for “S (0.05”, “Z-Phe-Arg-AMC (2” for “Z-Val-Val-Arg-AMC (4”, “λ” for “λ,”

Human cathepsin S, sequence (P25774 115-331): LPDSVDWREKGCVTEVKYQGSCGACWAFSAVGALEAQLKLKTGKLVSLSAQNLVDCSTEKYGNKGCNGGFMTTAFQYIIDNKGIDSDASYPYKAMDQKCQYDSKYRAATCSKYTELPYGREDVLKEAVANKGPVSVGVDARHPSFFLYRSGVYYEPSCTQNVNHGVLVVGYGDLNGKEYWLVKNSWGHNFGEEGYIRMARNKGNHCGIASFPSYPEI
Human cathepsin L, sequence (P07711 114-333): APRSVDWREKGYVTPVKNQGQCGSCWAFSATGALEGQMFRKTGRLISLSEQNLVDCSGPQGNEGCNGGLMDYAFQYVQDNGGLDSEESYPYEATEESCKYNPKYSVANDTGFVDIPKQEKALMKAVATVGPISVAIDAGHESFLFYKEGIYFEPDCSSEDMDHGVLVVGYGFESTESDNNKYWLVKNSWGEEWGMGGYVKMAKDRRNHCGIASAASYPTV
CATV, sequence (O60911 114-334): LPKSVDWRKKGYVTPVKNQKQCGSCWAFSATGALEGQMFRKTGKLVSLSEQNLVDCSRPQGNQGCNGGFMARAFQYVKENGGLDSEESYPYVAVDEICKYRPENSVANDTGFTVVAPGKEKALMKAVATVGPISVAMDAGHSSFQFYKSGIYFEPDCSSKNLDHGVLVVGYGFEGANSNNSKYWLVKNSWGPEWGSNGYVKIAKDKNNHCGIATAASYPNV

Turning to `CC[C@H](NC(=O)[C@H](CC(F)(F)CC1CC1)NCC(F)(F)Oc1ccc(F)cc1)C(=O)C(=O)NC1CC1` [K, (S)-5-cyclopropyl-N-((S)-1-(cyclopropylamino)-1,2-dioxopentan-3-yl)-2-(2,2-difluoro-2-(4-fluorophenoxy)ethylamino)-4,4-difluoropentanamide], the Ki was less than 1000 nM in assay [1], less than 100 nM in assay [2], less than 100 nM in assay [3] and less than 100 nM in assay [4].

For the molecule `CC#C[C@H](N[C@@H](CSCc1ccccn1)C(=O)NC1(C#N)CC1)C(F)(F)Oc1ccc(SC)cc1` [E, (R)-N-(1-cyanocyclopropyl)-2-((S)-1,1-difluoro-1-(4-(methylthio)phenoxy)pent-3-yn-2-ylamino)-3-(pyridin-2-ylmethylthio)propanamide], the Ki is more than 1000 nM in assay [1]; more than 1000 nM in assay [5]; more than 1000 nM in assay [2]; less than 100 nM in assay [3]; less than 1000 nM in assay [4].

Regarding `CC[C@H](NC(=O)[C@H](CS(=O)(=O)Cc1cccnc1)NCC(F)(F)Oc1ccc(F)cc1)C(=O)C(=O)NC1CC1` [B, (S)-N-cyclopropyl-3-((R)-2-(2,2-difluoro-2-(4-fluorophenoxy)ethylamino)-3-(pyridin-3-ylmethylsulfonyl)propanamido)-2-oxopentanamide], the Ki was less than 100 nM in assay [1]; less than 1000 nM in assay [5]; less than 100 nM in assay [2]; less than 100 nM in assay [3]; less than 100 nM in assay [4].

As to `CC#C[C@H](N[C@@H](CS(=O)(=O)Cc1cccnc1)C(=O)NC1(C#N)CC1)C(F)(F)Oc1ccc(S(C)(=O)=O)cc1` [H, (R)-N-(1-cyanocyclopropyl)-3-((S)-1,1 1-difluoro-1-(4-(methylsulfonyl)phenoxy)pent-3-yn-2-ylamino)-2-((pyridin-3-ylmethylsulfonyl)methyl)propanamide], the Ki in assay [1] was more than 1000 nM; in assay [5] it was more than 1000 nM; in assay [2] it was more than 1000 nM; in assay [3], less than 100 nM; in assay [4], less than 100 nM.

With `N#CC1(NC(=O)[C@H](CC(F)(F)CC2CC2)NCC(F)(F)Oc2ccc(F)cc2)CC1` [L, (S)-N-(1-cyanocyclopropyl)-5-cyclopropyl-2-(2,2-difluoro-2-(4-fluorophenoxy)ethylamino)-4,4-difluoropentanamide], the Ki in assay [1] was more than 1000 nM; in assay [2] it was more than 1000 nM; in assay [3], less than 1000 nM; in assay [4] it was more than 1000 nM.

Turning to `CC#C[C@H](N[C@@H](CSCC1CC1)C(=O)NC1(C#N)CC1)C(F)(F)Oc1ccc(SC)cc1` [Compound C, (R)-N-(1-cyanocyclopropyl)-3-(cyclopropylmethylthio)-2-((S)-1,1-difluoro-1-(4-(methylthio)phenoxy)pent-3-yn-2-ylamino)propanamide], the Ki was less than 100 nM in assay [1]; more than 1000 nM in assay [5]; more than 1000 nM in assay [2]; less than 1000 nM in assay [3]; more than 1000 nM in assay [4].

Turning to `N#CC1(NC(=O)[C@H](CS(=O)(=O)Cc2cccnc2)NCC(F)(F)Oc2ccc(F)cc2)CC1` [A, (R)-N-(1-cyanocyclopropyl)-2-(2,2-difluoro-2-(4-fluorophenoxy)ethylamino)-3-(pyridin-3-ylmethylsulfonyl)propanamide], the Ki was more than 1000 nM in assay [1]; more than 1000 nM in assay [5]; more than 1000 nM in assay [2]; less than 100 nM in assay [3]; less than 1000 nM in assay [4].

Take `CC[C@H](NC(=O)[C@H](CS(=O)(=O)CC1CC1)NCC(F)(F)Oc1ccc(F)cc1)C(=O)C(=O)NC1CC1` [J, (S)-N-cyclopropyl-3-((R)-3-(cyclopropylmethylsulfonyl)-2-(2,2-difluoro-2-(4-fluorophenoxy)ethylamino)propanamido)-2-oxopentanamide]: the Ki in assay [1] is less than 100 nM; in assay [5] it was less than 1000 nM; in assay [2] it was less than 1000 nM; in assay [3], less than 100 nM; in assay [4], less than 100 nM.

In the case of `CC#C[C@H](N[C@@H](CSCc1cccnc1)C(=O)NC1(C#N)CC1)C(F)(F)Oc1ccc(SC)cc1` [G], the Ki in assay [1] was more than 1000 nM; in assay [5], more than 1000 nM; in assay [2], more than 1000 nM; in assay [3], less than 100 nM; in assay [4], less than 1000 nM.

For the molecule `CC#C[C@H](N[C@@H](CS(=O)(=O)CC1CC1)C(=O)NC1(C#N)CC1)C(F)(F)Oc1ccc(S(C)(=O)=O)cc1` [D, (R)-N-(1-cyanocyclopropyl)-3-(cyclopropylmethylsulfonyl)-2-((S)-1,1-difluoro-1-(4-(methylsulfonyl)phenoxy)pent-3-yn-2-ylamino)propanamide], the Ki in assay [1] is more than 1000 nM; in assay [5] it was more than 1000 nM; in assay [2], more than 1000 nM; in assay [3] it was less than 100 nM; in assay [4], less than 1000 nM.

For `CC#C[C@H](N[C@@H](CS(=O)(=O)Cc1ccc[n+]([O-])c1)C(=O)NC1(C#N)CC1)C(F)(F)Oc1ccc(S(C)(=O)=O)cc1` [I], the Ki in assay [1] is more than 1000 nM; in assay [5] it was more than 1000 nM; in assay [2], more than 1000 nM; in assay [3], less than 100 nM; in assay [4], less than 100 nM.

Regarding `CC#C[C@H](N[C@@H](CS(=O)(=O)Cc1ccccn1)C(=O)NC1(C#N)CC1)C(F)(F)Oc1ccc(S(C)(=O)=O)cc1` [F, (R)-N-(1-cyanocyclopropyl)-2-((S)-1,1-difluoro-1-(4-(methylsulfonyl)phenoxy)pent-3-yn-2-ylamino)-3-(pyridin-2-ylmethylsulfonyl)propanamide], the Ki in assay [1] was more than 1000 nM; in assay [5], more than 1000 nM; in assay [2], more than 1000 nM; in assay [3], less than 100 nM; in assay [4] it was less than 100 nM.

Source of the values: patent publication EP2361243B9 (Virobay, Inc., priority 2008, dated 2010).
